From patent US20080242657A1, “Treatment of Tremor with Histamine H3 Inverse Agonists or Hist Amine H3 Antagonists” (priority 2004, published 2008)

Test system: harmaline-induced tremor
Experiment: harmaline-induced tremor model in rats
Format: in vivo
Source text: The identification of a compound as a histamine H3 inverse agonist or a histamine H3 antagonist may be readily determined without undue experimentation by methodology well known in the art. The efficacy of a histamine H3 inverse agonist or a histamine H3 antagonist in treating tremor may be readily determined without undue experimentation by methodology well known in the art, for example the harmaline-induced tremor model in rats, Sinton, et al., Pflugers Archive Eur. J. Phys., 414(1) 31-36 (1989). […] The ability of the histamine H3 inverse agonist or histamine H3 antagonist to be used in the present invention to treat tremor or movement disorders may be determined by these methods.

Compound: N#Cc1ccc(-c2cnc(OC3CCN(C4CCCC4)CC3)nc2)cc1 [2-(1-cyclopentylpiperidine-4-yloxy)-5-(4-cyanophenyl)pyrimidine]
- reversal of harmaline-induced tremor (dose of 1 mg/kg): 8.4%
- reversal of harmaline-induced tremor (dose of 3 mg/kg): 63.3%
- reversal of harmaline-induced tremor (dose of 10 mg/kg): 84.4%
